Experimental findings from ChEMBL document CHEMBL5154722, “Identification of new potent anticancer derivatives through simplifying the core structure and modification on their 14- hydroxyl group from oridonin” (Eur J Med Chem, 2022) are described below.

SMILES strings stand for the structures. Active and inactive are the calls of the source. No cut-off for these calls is given here.

The test system of series [1] is MDA-MB-231. As to the kind of experiment: Antiproliferative activity against human MDA-MB-231 cells assessed as reduction in cell viability incubated for 72 hrs by MTT assay. The series is classed as functional, cell-based. Conditions: MDA-MB-231, 72 h. In general terms: Tetrazolium dyes change colour on reduction, which living cells bring about.
Series [2] has as its system SMMC-7721. As to the kind of experiment: Antiproliferative activity against human […] cells assessed as reduction in cell viability incubated for 72 hrs by MTT assay. As to conditions: SMMC-7721, 72 h. The series is classed as functional, cell-based.
In series [3] the test system is MCF7. As to the kind of experiment: Antiproliferative activity against human MCF7 cells assessed as reduction in cell viability incubated for 72 hrs by MTT assay. Type of series: functional, cell-based. As to conditions: MCF7, 72 h.
Series [4] relates to SW480. As to the kind of experiment: Antiproliferative activity against human SW480 cells assessed as reduction in cell viability incubated for 72 hrs by MTT assay. Conditions: SW480, 72 h. The series is classed as functional, cell-based.
Series [5] deals with MGC-803. As to the kind of experiment: Antiproliferative activity against human MGC-803 cells assessed as reduction in cell viability incubated for 72 hrs by MTT assay. The series is classed as functional, cell-based. Conditions: MGC-803, 72 h.
For series [6], the system named is HeLa. As to the kind of experiment: Antiproliferative activity against human HeLa cells assessed as reduction in cell viability incubated for 72 hrs by MTT assay. Type of series: functional, cell-based.
The nature of series [7]: Antiproliferative activity against human U-87 MG cells assessed as reduction in cell viability incubated for 72 hrs by MTT assay. The series is classed as functional, cell-based, U-87MG ATCC.
The test system of series [8] is H22. As to the kind of experiment: Antiproliferative activity against mouse H22 cells assessed as reduction in cell viability incubated for 72 hrs by MTT assay. The series is classed as functional, cell-based. As to conditions: H22, 72 h.
Series [9] is described as follows: Cytotoxicity against human L02 cells assessed as reduction in cell viability incubated for 72 hrs by MTT assay. The series is classed as toxicity, cell-based.
Series [10] is described as follows: Selectivity index, ratio of IC50 for human L02 cells to IC50 for human SMMC-7721 cells. The series is classed as toxicity. As to conditions: L02 cells and SMMC-7721 cells, read-out: Ratio IC50.
In series [11] the test system is H22. As to the kind of experiment: Antitumor activity against mouse H22 cells allografted in ICR mouse assessed as reduction in tumor weight at 8 mg/kg, iv administered every two days for 21 days after 7 days of tumor implantation. The series is classed as functional. Conditions: time 21 day. Further details: scale not given: the % may be the effect or the level left.

Series [12] is described as follows: Toxicity in ICR mouse allografted with mouse H22 cells assessed as reduction in body weight at 8 mg/kg, iv administered every two days for 21 days after 7 days of tumor implantation measured every two days. The series is classed as organism-based. As to conditions: in vivo, 504 h, time 21 day.
The subject of series [13] is K562. As to the kind of experiment: Antiproliferative activity against human K562 cells assessed as reduction in cell viability incubated for 72 hrs by MTT assay. Type of series: functional, cell-based. As to conditions: K562, 72 h.
Series [14] relates to H22. As to the kind of experiment: Antitumor activity against mouse H22 cells allografted in ICR mouse assessed as reduction in tumor volume at 20 mg/kg, iv administered once a day for 21 days after 7 days of tumor implantation measured every two days. Type of series: functional, organism-based. Conditions: time 21.0 day.
The test system of series [15] is H22. As to the kind of experiment: Antitumor activity against mouse H22 cells allografted in ICR mouse assessed as reduction in tumor weight at 20 mg/kg, iv administered once a day for 21 days after 7 days of tumor implantation. As to conditions: time 21 day. Type of series: functional. Further details: scale not given: the % may be the effect or the level left.

A short description of series [16]: Toxicity in ICR mouse allografted with mouse H22 cells assessed as change in body weight at 20 mg/kg, iv administered once a day for 21 days after 7 days of tumor implantation measured every two days. The series is classed as organism-based. As to conditions: in vivo, 504 h, time 21 day.
The subject of series [17] is K562. As to the kind of experiment: Potency index, ratio of IC50 for oridonin to IC50 for test compound for antiproliferative activity against K562 cells. Type of series: functional, Homo sapiens.
Series [18] concerns MDA-MB-231. As to the kind of experiment: Potency index, ratio of IC50 for oridonin to IC50 for test compound for antiproliferative activity against MDA-MB-231 cells. Type of series: functional, Homo sapiens.
In series [19] the test system is SMMC-7721. As to the kind of experiment: Potency index, ratio of IC50 for oridonin to IC50 for test compound for antiproliferative activity against SMMC-7721 cells. Type of series: functional, Homo sapiens.
In series [20] the test system is MCF7. As to the kind of experiment: Potency index, ratio of IC50 for oridonin to IC50 for test compound for antiproliferative activity against MCF7 cells. The series is classed as functional, Homo sapiens.

By IC50 is commonly meant the concentration that gives 50% inhibition. With `C=C1C(=O)[C@]23[C@H](O)[C@H]1CC[C@H]2[C@@]12CO[C@]3(O)[C@@H](O)[C@@H]1C(C)(C)CC[C@@H]2O` [ORIDONIN], the IC50 in series [1] came out at 11600 nM; in series [2], 12600 nM; in series [3], 11100 nM; in [4] it was 11600 nM; in series [5], 15100 nM; in series [6], 17300 nM. Also, the figures for the IC50 in [7] and in series [8] were 14000 nM and 4880 nM, respectively. The IC50 at 72 h in series [9] turned out to be 34300 nM. Further, the selectivity ratio in [10] was determined as 2.73.
Regarding `CC(=O)O[C@H]1C(=O)[C@@]2(C)[C@H]([C@H](OC(=O)c3ccccc3)[C@]3(O)C[C@H](OC(=O)[C@H](O)[C@@H](NC(=O)c4ccccc4)c4ccccc4)C(C)=C1C3(C)C)[C@]1(OC(C)=O)CO[C@@H]1C[C@@H]2O` [PACLITAXEL], the Activity in series [11] is reported as 90.39%; in [12] it was “Toxic”.
`C=C1C(=O)[C@]23[C@H](OC(=O)/C=C/c4ccncc4)[C@H]1CC[C@H]2[C@]12C=CCC(C)(C)[C@H]1[C@H](O)[C@@]3(O)OC2`: the IC50 in series [13] is 210 nM; in [1], 640 nM; in series [2] it was 350 nM; in [3], 1310 nM; in series [4], 1110 nM; in series [5], 1150 nM. The figures for the IC50 in series [6], in series [7] and in [8] were 970 nM, 1160 nM and 360 nM, respectively. Moreover, the half-inhibitory concentration (IC50) at 72 h in [9] is 6230 nM. In addition, the selectivity ratio in series [10] came to 17.7. Besides, in [14], the outcome was Active. Also, the Activity in series [15] is 56.76%; in series [16] it was “Non-Toxic”.
As for `C=C1C(=O)[C@]23[C@H](OC(=O)/C=C/c4ccncc4)[C@H]1CC[C@H]2[C@]12CCCC(C)(C)[C@H]1C[C@@]3(O)OC2`, the half-maximal inhibitory concentration (IC50) turned out to be 340 nM in series [13]; 720 nM in series [1]; 770 nM in series [2]; 710 nM in series [3]; 800 nM in series [4]; 960 nM in series [5]. Moreover, the IC50 in series [6] stood at 940 nM; in series [7] it was 900 nM; in series [8], 780 nM. Besides, the half-maximal inhibitory concentration (IC50) at 72 h in series [9] was found to be 5240 nM. Moreover, the selectivity ratio in series [10] is 6.79. In addition, the outcome in [14] was Active. Moreover, the Activity in [15] is on record as 52.34%; in [16] it was “Non-Toxic”.
Turning to `C=C1C(=O)[C@@]23C(=O)C[C@@H]4C(C)(C)CCC[C@@]4(COC(C)=O)[C@@H]2CC[C@@H]1[C@H]3OC(C)=O`, the IC50 in series [13] was 990 nM; in series [1], 1670 nM; in [2], 2090 nM; in series [3], 1300 nM. For the same molecule, the “Ratio IC50” value in series [17] was 4; in [18], 6.9; in [19], 6.2; in [20], 8.5.
